# Laboratory results reported in patent US10100076B2, “Modified nucleosides for the treatment of viral infections and abnormal cellular proliferation” (priority 2000, dated 2018).
# pEC50, pIC50: −log10 of the molar value. Where two headings read alike, the source gives them in different places.
# What was measured:
# [1] = system: SUDHL-1 cells (human anaplastic large T-cell lymphoma cell line); test: Prevention of β-D-GA-related cytotoxicity by natural nucleosides, SUDHL-1 cells; assay type: cell-based
# Description: (§1) The prevention of β-D-GA-related cytotoxicity in CEM cells (human T-cell lymphoma) and in the SUDHL-1 cells (human anaplastic large T-cell lymphoma cell line) was studied by adding natural nucleosides. This experiment was initiated by adding 50 μM of natural nucleosides into the media, together with increasing concentration of β-D-GA. CEM cells were seeded at 2500 cells per well and incubated for 4 days (=fast growing cell line with a doubling time of 1.3 days). SUDHL-1 cells were seeded at 10,000 cells/well, and incubated for 3 days (=slow growing cell line, doubling time 3 days). The result of this experiment is plotted in FIG. 4.
# [2] = system: CEM cells (human T-cell lymphoma); test: Prevention of β-D-GA-related cytotoxicity by natural nucleosides, CEM cells; assay type: cell-based; conditions: 50 μM natural nucleoside, 4 days, plot not shown
# Description: as §1
# [3] = system: Respiratory Syncytial Virus A; test: microbe, parasite or virus in culture; assay type: cell-based, Respiratory Syncytial Virus strain A2
# [4] = system: Influenza A (H3N2); test: microbe, parasite or virus in culture; assay type: cell-based; conditions: Initial Test, Neutral Red
# [5] = system: Influenza B; test: microbe, parasite or virus in culture; assay type: cell-based; conditions: Initial Test, CPE Inhibition (Visual)
# [6] = system: Influenza A (H1N1); test: microbe, parasite or virus in culture; assay type: cell-based; conditions: Initial Test, Neutral Red
# [7] = system: Parainfluenza Type 3 Virus; test: organism not typed; assay type: cell-based, Parainfluenza type 3 virus strain 14702
# [8] = system: Influenza A (H1N1); test: microbe, parasite or virus in culture; assay type: cell-based; conditions: Initial Test, CPE Inhibition (Visual)
# [9] = system: HCV replicon; test: HCV replicon system in Huh7 cells, replicon RNA by Q-RT-PCR (HCV ΔCt, ΔΔCt); assay type: cell-based, hepatitis C virus; conditions: for Ave. ΔΔCt: HCV RNA ΔCt minus rRNA ΔCt; for Ave. HCV RNA ΔCt: HCV replicon in Huh7 cells; for average ΔΔCt: HCV RNA ΔCt minus rDNA ΔCt
# [10] = system: Respiratory Syncytial Virus A; test: microbe, parasite or virus in culture; assay type: cell-based; conditions: Initial Test, Neutral Red
# [11] = system: Parainfluenza Type 3 Virus; test: organism not typed; assay type: cell-based; conditions: Initial Test, Neutral Red
# [12] = system: rDNA (host DNA); test: rDNA ΔCt in Huh7 replicon cells (effect on cellular DNA polymerases); conditions: Table 25, average of N
# Excerpt: In another typical setting, a compound might reduce the host RNA polymerase activity, but not the host DNA polymerase activity. Therefore, quantification of rDNA or beta-actin DNA (or any other host DNA fragment) and comparison with DNA levels of the no-drug control is a relative measurement of the inhibitory effect of the test compound on cellular DNA polymerases.
# With the availability of both the HCV ΔCt data and the rDNA ΔCt, a specificity parameter can be introduced. This parameter is obtained by subtracting both ΔCt values from each other.
# [13] = system: Influenza A (H3N2); test: microbe, parasite or virus in culture; assay type: cell-based; conditions: Initial Test, CPE Inhibition (Visual)
# [14] = system: rRNA (host RNA polymerase I product); test: rRNA ΔCt in Huh7 replicon cells (effect on host RNA polymerases); conditions: Table 24, average of n
# Excerpt: In a typical setting, a compound might reduce both the host RNA polymerase activity and the replicon-encoded polymerase activity. Therefore, quantification of rRNA (or any other host RNA polymerase I product) or beta-actin mRNA (or any other host RNA polymerase II) and comparison with RNA levels of the no-drug control is a relative measurement of the effect of the test compound on host RNA polymerases.
# With the availability of both the HCV ΔCt data and the rRNA ΔCt, a specificity parameter can be introduced. This parameter is obtained by subtracting both ΔCt values from each other.
# [15] = system: Influenza B; test: microbe, parasite or virus in culture; assay type: cell-based; conditions: Initial Test, Neutral Red
# [16] = system: human malignant T and B cells and various tumor cell lines; test: Toxicity profile against human malignant T and B cells and various tumor cell lines (MTT, IC50); assay type: cell-based; conditions: for pIC50: MTT assay, 3-5 days, read-out: Toxicity IC50
# Description: (§2) Cytotoxicity testing as performed here are standard techniques. Briefly, cells are seeded in 96-well plates at various concentrations (dependent on cell type, duration of assay), typically at 5×10^3 cells per well, in the presence of increasing concentrations of the test compound (0, 1, 3, 10, 33, and 100 μM). Depending on the cell-type incubation with test compound can vary in time, but is usually within the range of 3 to 5 days. Cell viability and mitochondrial activity are measured by adding the MTT-dye (Promega), followed by eight hours of incubation. Afterwards the plates containing the dye are fixed by adding a stop-solution followed by another eight hour incubation. Finally, absorbance is read at 570 nm. Such methodologies are well described and available from the manufacturer (Promega).
# In order to explore the complete potential of this compound, a set of human malignant T and B cells and various tumor cell lines were incubated with […] at varying concentrations, and after the absorbance was read, an IC50 value was calculated. As a control, Ara-C, 5FU, and cyclo-heximide was taken alongside (Table 26).
# [17] = system: Vero cells; test: cells; assay type: cell-based
# Description: as §2, with “The cytotoxicity testing” for “Cytotoxicity testing”, “performed herein is a” for “performed here are”, “standard technique.” for “standard techniques.”, “μM). After three (Vero cells), or four (CEM cells), or five (PBM cells) day-incubation, cell” for “μM). Depending on the cell-type incubation with test compound can vary in time, but is usually within the range of 3 to 5 days. Cell”, “by a 8” for “by eight”, “hours” for “hours of”
# [18] = system: CEM cells; test: cells; assay type: cell-based, human
# Description: as §2, with “The cytotoxicity testing” for “Cytotoxicity testing”, “performed herein is a” for “performed here are”, “standard technique.” for “standard techniques.”, “μM). After three (Vero cells), or four (CEM cells), or five (PBM cells) day-incubation, cell” for “μM). Depending on the cell-type incubation with test compound can vary in time, but is usually within the range of 3 to 5 days. Cell”, “by a 8” for “by eight”, “hours” for “hours of”
# [19] = system: PBM cells; test: cells; assay type: cell-based, human
# Description: as §2, with “The cytotoxicity testing” for “Cytotoxicity testing”, “performed herein is a” for “performed here are”, “standard technique.” for “standard techniques.”, “μM). After three (Vero cells), or four (CEM cells), or five (PBM cells) day-incubation, cell” for “μM). Depending on the cell-type incubation with test compound can vary in time, but is usually within the range of 3 to 5 days. Cell”, “by a 8” for “by eight”, “hours” for “hours of”
# [20] = Initial Test, CPE Inhibition (Visual), read-out: EC50, RSV
# [21] = Initial Test, CPE Inhibition (Visual), read-out: EC50, Parainfluenza Type 3 Virus
compound,measurement,setting,value
Nc1ccn([C@@H]2O[C@H](CO)[C@@H](O)[C@H]2O)c(=O)n1 [cytidine],"prevention of β-D-GA toxicity, in words","[1]; 50 μM natural nucleoside, SUDHL-1 cells, 3 days, FIG. 4",markedly prevent β-D-GA toxicity
same,"prevention of β-D-GA toxicity, in words",[2],markedly prevent β-D-GA toxicity
Nc1ccn([C@@H]2O[C@H](CO)C[C@H]2O)c(=O)n1 [β-D-AJ],pEC50,[3]; [20],< 3.30
same,pEC50,[4],< 3.30
same,pEC50,[5],3.82
same,pEC50,[6],3.82
same,pEC50,[7]; [21],< 3.30
same,pEC50,[8],3.82
same,Ave. ΔΔCt,[9]; Table 24,1.18
same,Ave. HCV RNA ΔCt,"[9]; Table 24, average of n",2.92
same,average ΔΔCt,[9]; Table 25,2.33
same,Ave. HCV RNA ΔCt,"[9]; Table 25, average of N",2.75
same,pEC50,[10],< 3.30
same,pEC50,[11],< 3.30
same,Ave. rDNA ΔCt,[12],0.43
same,pEC50,[13],< 3.30
same,Ave. rRNA ΔCt,[14],1.74
same,pEC50,[15],3.82
"O=c1[nH]c(=O)n([C@@H]2O[C@H](CO)[C@@H](O)[C@H]2O)cc1O [β-D-CL, 5-hydroxyuridine]","antiviral activity against RSV, in words",[3],potent in-vitro anti-RSV compound
same,"SI (Selectivity Index), RSV","[3]; Initial Test, CPE Inhibition (Visual)",150
same,pEC50,"[3]; human respiratory syncytial virus, MA104, read-out: EC50, RSV",6.30
same,pEC50,"[4]; Influenza A virus, H3N2, MDCK",< 5.30
same,pEC50,"[5]; Influenza B virus, MDCK",< 5.30
same,pEC50,"[6]; Influenza A virus, H1N1, MDCK",5.10
same,"SI (Selectivity Index), Influenza A (H1N1)",[6],1.1
same,pEC50,"[7]; MA104, read-out: EC50, Parainfluenza Type 3 Virus",4.05
same,pEC50,"[8]; Influenza A virus, H1N1, MDCK",< 5.30
same,"SI (Selectivity Index), RSV",[10],>170
same,pEC50,"[10]; human respiratory syncytial virus, MA104",> 6.30
same,"SI (Selectivity Index), Parainfluenza Type 3 Virus",[11],1
same,pEC50,[11]; MA104,4.40
same,pEC50,"[13]; Influenza A virus, H3N2, MDCK",< 5.30
same,pEC50,"[15]; Influenza B virus, MDCK",< 5.30
OC[C@H]1O[C@@H](n2cnc3c(Cl)ncnc32)[C@H](O)[C@@H]1O [β-D-DJ],pEC50,[3]; [20],3.30
same,pEC50,[4],< 3.30
same,pEC50,[5],4.30
same,pEC50,[6],< 3.30
same,pEC50,[7]; [21],< 3.30
same,pEC50,[8],< 3.30
same,Ave. ΔΔCt,[9]; Table 24,−0.11
same,Ave. HCV RNA ΔCt,"[9]; Table 24, average of n",3.51
same,average ΔΔCt,[9]; Table 25,2.14
same,Ave. HCV RNA ΔCt,"[9]; Table 25, average of N",4.84
same,pEC50,[10],< 3.30
same,pEC50,[11],3.30
same,Ave. rDNA ΔCt,[12],2.70
same,pEC50,[13],< 3.30
same,Ave. rRNA ΔCt,[14],3.62
same,pEC50,[15],3.96
Nc1nc(=O)n([C@@H]2C[C@H](CO)[C@@H](O)[C@H]2O)cc1F [β-D-GA],pIC50,[16]; BL41 (human B-cell lymphoma cell line),> 6.00
same,pIC50,[16]; H9 (human T-cell lymphoblast cell line),5.85
same,pIC50,[16]; HEPG2 (human liver carcinoma cell line),< 4.00
same,pIC50,"[16]; JY (human B-cell lymphoma cell line, EBV transformed)",5.52
same,pIC50,[16]; LNCaP (human prostate adenocarcinoma cell line),4.34
same,pIC50,[16]; MCF-7 (human breast carcinoma cell line),< 4.00
same,pIC50,[16]; SK-MEL-28 (human melanoma cell line),< 4.00
same,pIC50,[16]; SK-MES-1 (human lung squamous carcinoma cell line),< 4.00
same,pIC50,[16]; SUDHL-1 (human anaplastic large T-cell lymphoma cell line),6.15
same,pIC50,[16]; SupT1 (human T-cell lymphoblast cell line),6.52
same,"toxicity in tumor cell panel, in words",[16]; human malignant T and B cells vs PBM and non-T or B neoplastic cells,"potent toxicity in human malignant T and B cells, but not in human PBM cells and non-T or B neoplastic cells"
same,pIC50,[17],< 4.24
same,pIC50,"[17]; Vero (African green monkey kidney cell line), MTT assay, incubation 3-5 days, read-out: Toxicity IC50",< 4.00
same,pIC50,[18],5.72
same,"cytotoxic effect on CEM cells, in words",[18],selective cytotoxic effect on CEM cells
same,pIC50,"[18]; CEM (human T-cell lymphoma cell line), MTT assay, incubation 3-5 days, read-out: Toxicity IC50",5.54
same,pIC50,[19],< 4.00
same,"% inhibition at 100 μM, PBM cells","[19]; 100 μM, five day incubation, MTT",11.3%
same,pIC50,"[19]; PBM (human peripheral blood mononuclear cells), MTT assay, incubation 3-5 days, read-out: Toxicity IC50",< 4.00
same,"effectiveness against slow vs fast growing cells, in words",[1]; SUDHL-1 and CEM cells,equally effective against slower growing SUDHL-1 cells and fast growing CEM cells
same,Ave. ΔΔCt,[9]; Table 24,3.93
same,Ave. HCV RNA ΔCt,"[9]; Table 24, average of n",6.04
same,Ave. rRNA ΔCt,[14],2.10
